“Also recorded” adds a separate entry of the source. Like-named read-outs stand apart in the source and are kept apart here. Marks after values point to notes of the source that are not given here. Values belong to the compound of their own block, whether it stands above or below them.
Key:
[1] = Population pharmacokinetic modelling of DHA and piperaquine plasma concentrations in healthy Thai volunteers; format: in vivo, human; details: for half-life / AUC / Cmax / Tmax: both sexes, plasma, oral; for AUC: read-out: AUC (time zero to infinity), median (range); for Cmax: read-out: CMAX, median (range); for Tmax: read-out: TMAX, median (range); for MTT (mean transit time), population estimate (%RSE): oral DHA-piperaquine three tablets
Description: It was a descriptive pharmacokinetic-pharmacodynamic study and no formal sample size calculations were performed. […] All volunteers received primaquine alone in the first phase, followed by a washout period of 1 week. In the second and third phases, volunteers received DHA-piperaquine alone and DHA-piperaquine coadministered with primaquine at random, with an intervening washout period of 8 weeks. Study drug regimens comprised two tablets of primaquine (each tablet containing 15 mg primaquine base) and three tablets of co-formulated DHA-piperaquine (each tablet containing 40 mg DHA and 320 mg piperaquine phosphate). Study drugs were administered in the morning, 30 min after a light meal (~200 kcal and 8 g fat) with a glass of water. Venous blood samples (2 ml) were collected into fluoride-oxalate blood collection tubes. Blood samples were taken at 0 (predose), 0.25, 0.5, 1, 1.5, 2, 3, 4, 6, 8, 10, 12, and 24 h postdose. Additional blood samples were taken at days 3, 4, 7, 11, 15, 22, and 36 for piperaquine drug measurements. The exact drug administration and sampling times were recorded. Blood and plasma were separated by centrifugation at 2000 × g at 4°C for 7 min. All plasma samples were stored below -70°C and transferred on dry ice to the Department of Clinical Pharmacology, Mahidol-Oxford Tropical Medicine Research Unit (MORU), Bangkok, Thailand, for drug quantification. Plasma concentrations of DHA and piperaquine were measured using solid-phase extraction followed by liquid chromatography coupled with tandem mass spectrometry 25, 26. Quality control samples at low, middle and high concentration (5.87, 117 and 1880 ng ml^-1 for DHA and 4.50, 20.0 and 400 ng ml^-1 for piperaquine) were analysed in triplicate within each batch of study samples, to ensure the accuracy and precision of the drug assay. […] The lower limit of quantification (LLOQ) was set to be 2.00 ng ml^-1 for DHA and 1.50 ng ml^-1 for piperaquine. The laboratory is a participant in the QA/QC proficiency testing programme supported by the Worldwide Antimalarial Resistance Network 27. DHA and piperaquine plasma concentrations were transformed into their natural logarithms and analysed using a nonlinear mixed-effects modelling approach in NONMEM version 7.3 (Icon Development Solution, Ellicott City, MD, USA). […] version 2.9.0 28, Perl-speaks-NONMEM version 3.5.3 (PsN) 29 and Xpose version 4.0 30 were used for automation, model evaluation and diagnostics during the model-building process. The first-order conditional estimation method with interactions (continuous data only) or the Laplacian estimation method (a combination of continuous and categorical data) was used throughout modelling and simulation. […] Therefore, two LLOQ methods were evaluated during the model-building process 31. Data below the LLOQ were omitted (M1 method) or modelled as categorical data (M3 method). Model fitness was evaluated primarily by the objective function value (OFV; calculated by NONMEM as proportional to -2 × log-likelihood of the data). […] One-, two-, three- and four-compartment structural disposition models were evaluated for DHA and piperaquine. The best performing model was used to evaluate the absorption characteristics of DHA and piperaquine (i.e. first-order absorption with and without lag time, zero-order absorption and transit absorption). The transit compartment absorption model is a more mechanistic description of delayed absorption compared with the dichotomous properties of a lag-time model 32.

[2] = Drug-drug interaction with primaquine coadministration (stepwise and full covariate approach, bootstrap n = 1000); format: in vivo, human; details: for Effect of primaquine coadministration on pharmacokinetic properties: stepwise covariate approach
From the text: All continuous and categorical covariates (aspartate aminotransferase, alanine aminotransferase, alkaline phosphatase, haemoglobin, blood urea nitrogen, serum creatinine level, albumin level, primaquine coadministration and age) were investigated by using a stepwise forward inclusion (P‐value <0.05), followed by stepwise backward elimination (P‐value >0.001). A strict P‐value of 0.001 for the backward elimination was used as there were relatively few subjects in the present study 34. Gender was not evaluated as a covariate owing to the substantial imbalance between male and female subjects (five males out of 16 subjects). The effect of primaquine coadministration was also modelled separately, using a full covariate approach in which the primaquine coadministration was implemented as a categorical covariate on all pharmacokinetic parameters (except relative bioavailability owing to identifiability issues) in the final pharmacokinetic model. The full covariate models were bootstrapped (n = 1000) to determine a potentially influential drug–drug interaction on primary and secondary pharmacokinetic parameters. A primaquine‐dependent change of more than ±25% in parameter estimates was deemed a clinically relevant drug–drug interaction.

[3] = cited from earlier work
QT interval = experiment: Population pharmacokinetic-pharmacodynamic model of piperaquine concentration vs double-delta-corrected QTc prolongation (12-lead ECG); format: in vivo, human
Description: Subjects were rested for at least 20 min before ECG measurements were taken (ECG‐1250 K, Nihon Kohden, Japan). 12‐lead ECG measurements were performed twice before drug administration, and at 1, 2, 4, 8, 12, and 24 h after each study drug administration. The ECGs were recorded at 10 mm mV^–1 sensitivity, and 25 mm s^–1 paper speed. Automatic readouts of all ECG measurements were collected but all ECGs with a reported QT interval greater than 450 ms were manually adjudicated by a research physician (unblinded) and a cardiologist (blinded). Other abnormal ECG waveforms were read by a cardiologist. Observed QT intervals were later corrected for heart rate by both the Fridericia and Bazett formulae 24. Data‐driven individual and study population correction factors were also evaluated (see section on methodology, below).
The observed QT interval must be corrected for heart rate in order to compare QT intervals between and within patients. Observed QT measurements were corrected by the traditionally used Bazett and Fridericia formulae (i.e. fixing the exponent (α) to 1/2 and 1/3, respectively, in Equation (5)). Furthermore, all observed individual QT and RR intervals from the placebo arm (i.e. primaquine‐alone arm) in a subject were used to determine the optimal individual QT correction factor (α) for each subject using ordinary least‐squares fit (Equation (5)). The calculated individual correction factor for a particular subject was then applied to all measured QT intervals for that subject, in order to generate corrected QT intervals (QTc) 24.
The appropriateness of the applied correction methods was evaluated by individual linear regression analysis of QTc vs. RR. The relationship between piperaquine drug concentrations and QRS, JT (i.e. QT – QRS) and QT intervals was evaluated with ordinary linear regression to assess the most appropriate modelling approach.
Double‐delta corrections are commonly performed to adjust for the observed circadian rhythm of ECG measurements 37. Thus, double‐delta‐corrected QTc prolongations (ΔΔQTc) were calculated by subtracting the placebo arm ΔQTc from the treatment arm ΔQTc, as in Equation (7). The primaquine‐alone arm was used as the placebo arm.
Calculated ΔΔQTc‐prolongations were used as the pharmacodynamic endpoint. Individually predicted piperaquine concentrations (CP) were obtained from imputing individual pharmacokinetic parameter estimates directly into the pharmacodynamic model. The relationship between drug exposure and QT prolongation was evaluated initially by a linear direct‐response pharmacodynamic model, as in Equation (8).
(8) ΔΔQTc=θ1+η1+θ2×CPt+εi where θ1 represents the typical baseline ΔΔQTc prolongation, η1 is the normally distributed between‐subject variability, θ2 is the slope of the exposure–response relationship and εi is the normally distributed residual error. Different exposure–response relationships (i.e. power model and EMAX model) were also investigated during the model development process. Hysteresis was investigated to account for a possible delayed exposure–response relationship (i.e. turn‐over and link models).
Age, gender, electrolyte levels (i.e. potassium and sodium) at admission and concomitant primaquine administration were evaluated as linear covariates on the piperaquine‐related ΔΔQTc prolongation, using a stepwise addition–deletion approach (as described above). Model evaluation and diagnostics were performed in the same manner as for the pharmacokinetic modelling approach.

[4] = human, with primaquine, Bayesian post hoc estimates
[5] = human, with primaquine, Bayesian post hoc estimates, read-out: t1/2 (terminal half-life), median (range) (converted)
[6] = human, without primaquine, Bayesian post hoc estimates
[7] = human, without primaquine, Bayesian post hoc estimates, read-out: t1/2 (terminal half-life), median (range) (converted)
[8] = healthy volunteers, typical individual 64 kg
[9] = healthy volunteers, typical individual 64 kg, two-compartment model
[10] = F fixed to 100% for the population
[11] = healthy volunteers, typical individual 64 kg, three-compartment model
[12] = full covariate approach, 95% CI included zero effect

half-life ([1]; human, three-compartment model, not carried forward, read-out: Median terminal half-life from the three-compartment model (converted)): 3.11 h | AUC [1, 4]: 798 ng·h/mL | Cmax [1, 4]: 357 ng/mL | Tmax [1, 4]: 1.27 h | half-life [1, 5]: 2.2 h | AUC [1, 6]: 767 ng·h/mL | Cmax [1, 6]: 361 ng/mL | Tmax [1, 6]: 1.3 h | half-life [1, 7]: 2.2 h | MTT (mean transit time), population estimate (%RSE) [1, 8]: 0.567 (11.4%) h | CL/F (oral clearance), population estimate (%RSE) [1, 8]: 148 (10.6%) l h^-1 | VC/F (apparent central volume of distribution), population estimate (%RSE) [1, 8]: 214 (16.9%) l | ka (absorption rate constant from last transit compartment to central compartment), population estimate (%RSE) [1, 8]: 2.89 (37.1%) h^-1 | QP/F (inter-compartment clearance), population estimate (%RSE) [1, 9]: 28.5 (26.0%) l h^-1 | VP/F (apparent peripheral volume of distribution), population estimate (%RSE) [1, 9]: 65.9 (19.1%) l | Between-occasion variability of ka, %CV (%RSE) ([1]; human, in vivo): 89.0% (23.7%) ^* | Between-occasion variability of ka, %CV (%RSE) ([1]; human, in vivo, listed as DHA): 89.0%
Compound: C[C@H]1[C@@H](O)O[C@@H]2O[C@@]3(C)CC[C@H]4[C@H](C)CC[C@@H]1[C@@]24OO3 [dihydroartemisinin]
Effect of primaquine coadministration on pharmacokinetic properties ([2]; listed as DHA): did not affect the pharmacokinetic properties; also recorded: did not have a significant impact | Elimination half-life [3]: 1 to 2 h | Terminal half-life in previous reports [3]: 8.7 to 150 min

Between-occasion variability of F (relative bioavailability), %CV (%RSE) [1, 10]: 19.1% (13.3%) ^* | Between-subject variability of F (relative bioavailability), %CV (%RSE) [1, 10]: 17.9% (34.0%) | Cmax [1, 4]: 300 ng/mL | Tmax [1, 4]: 3.98 h | half-life [1, 5]: 530 h | Cmax [1, 6]: 332 ng/mL | Tmax [1, 6]: 3.76 h | half-life [1, 7]: 530 h | MTT (mean transit time), population estimate (%RSE) [1, 8]: 3.13 (9.42%) h | CL/F (oral clearance), population estimate (%RSE) [1, 8]: 27.4 (5.50%) l h^-1 | VC/F (apparent central volume of distribution), population estimate (%RSE) [1, 8]: 751 (23.5%) l | QP1/F (inter-compartment clearance), population estimate (%RSE) [1, 11]: 206 (9.56%) l h^-1 | QP2/F (inter-compartment clearance), population estimate (%RSE) [1, 11]: 71.5 (9.01%) l h^-1 | VP1/F (apparent peripheral volume of distribution), population estimate (%RSE) [1, 11]: 1900 (8.23%) l | Between-occasion variability of MTT, %CV (%RSE) ([1]; human, in vivo): 32.2% (13.4%) ^* | Between-subject variability of CL/F, %CV (%RSE) ([1]; human, in vivo): 10.9% (37.2%) | Between-subject variability of QP2/F, %CV (%RSE) ([1]; human, in vivo): 24.1% (36.3%) | Between-subject variability of VC/F, %CV (%RSE) ([1]; human, in vivo): 42.4% (40.9%) | Variability in the absorption characteristics ([1]; human, in vivo): below 35% | Day 7 conc., median (range) ([1]; with primaquine, Bayesian post hoc estimates): 16.7 (13.8–28.9) ng ml^-1 | Day 7 conc., median (range) ([1]; without primaquine, Bayesian post hoc estimates): 18.3 (10.5–34.9) ng ml^-1 | Median decrease in central volume of distribution during concomitant primaquine [2, 12]: 37.3% (95% CI −67.6%, 33.7%) | Median increase in mean transit absorption time during concomitant primaquine [2, 12]: 26.8% (95% CI −21.2%, 62.5%)
Compound: Clc1ccc2c(N3CCN(CCCN4CCN(c5ccnc6cc(Cl)ccc56)CC4)CC3)ccnc2c1 [piperaquine]
SLOPE (slope of the relationship between piperaquine concentration and ΔΔQTc prolongation), population estimate (%RSE) (QT interval; linear direct-response model, healthy volunteers): 0.0417 (12.5%) ms (ng ml^-1)^-1 | Relationship between piperaquine drug concentrations and ΔQRS (QT interval; ordinary linear regression, P = 0.520): no significant relationship | Population mean increase in ΔΔQTc (QT interval) per 100 ng ml^-1 increase in piperaquine plasma concentration (QT interval; per 100 ng ml^-1, individually corrected QT, healthy volunteers): 4.17 ms | Effect of primaquine coadministration on pharmacokinetic properties [2]: did not affect the pharmacokinetic properties; also recorded: did not have a significant impact | Terminal elimination half-life ([3]; introduction): 480 to 720 h | Increase in piperaquine trough concentrations at week 36 compared with week 4 ([3]; repeated bimonthly treatment doses): 267% (range 146–381%) | Increase in piperaquine trough concentrations at week 36 compared with week 4 ([3]; repeated monthly treatment doses): 336% (range 271–402%) | Median maximum piperaquine concentration ([3]; standard 3-day regimen of 50 mg kg^-1, pregnant and nonpregnant women with uncomplicated P. falciparum malaria): 244 ng/mL

Compound: COc1cc(NC(C)CCCN)c2ncccc2c1 (centres unmarked) [primaquine]
Relationship between ΔQTc and primaquine concentrations (QT interval; primaquine-alone arm, 30 mg base, ordinary linear regression): no correlation; also recorded: no impact on ventricular repolarization | Effect of primaquine on the piperaquine exposure-QTc prolongation relationship (QT interval; stepwise covariate approach): did not affect the relationship

Reference: paper PMC5698590 (British Journal of Clinical Pharmacology, 2017)
